In assay [1] the target is T1, Lysine-specific demethylase 4D (Homo sapiens, UniProt Q6B0I6).
T1 sequence (Q6B0I6 whole entry): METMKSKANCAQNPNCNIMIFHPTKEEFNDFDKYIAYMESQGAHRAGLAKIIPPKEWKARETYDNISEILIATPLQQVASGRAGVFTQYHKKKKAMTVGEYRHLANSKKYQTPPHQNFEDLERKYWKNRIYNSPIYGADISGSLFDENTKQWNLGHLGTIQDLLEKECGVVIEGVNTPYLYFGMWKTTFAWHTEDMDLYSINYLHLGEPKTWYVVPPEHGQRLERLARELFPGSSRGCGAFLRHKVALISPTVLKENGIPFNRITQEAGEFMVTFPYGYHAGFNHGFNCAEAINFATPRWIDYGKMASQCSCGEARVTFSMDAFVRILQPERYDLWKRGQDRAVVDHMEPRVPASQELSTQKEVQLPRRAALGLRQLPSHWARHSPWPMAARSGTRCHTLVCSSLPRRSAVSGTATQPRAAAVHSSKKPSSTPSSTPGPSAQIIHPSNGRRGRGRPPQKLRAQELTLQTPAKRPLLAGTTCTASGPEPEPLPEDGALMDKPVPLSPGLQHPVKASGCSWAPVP
The experiment in a line: Inhibition of KDM4D (unknown origin).

In assay [2] the test system is SW480. Nature of the assay: Antiproliferative activity against human SW480 cells assessed as reduction in cell viability measured after 72 hrs by MTT assay. The assay is classed as functional, cell-based. The conditions noted are these: SW480, 72 h. (In general: Tetrazolium dyes change colour on reduction, which living cells bring about.)
The next assay deals with HepG2. Nature of the assay: Antiproliferative activity against human HepG2 cells assessed as reduction in cell viability measured after 72 hrs by MTT assay. It is filed as functional, cell-based.
The subject of a further assay is Huh-7. The experiment in a line: Antiproliferative activity against human Huh-7 cells assessed as reduction in cell viability measured after 72 hrs by MTT assay. The assay is classed as functional, cell-based.
Assay [3] concerns the target T2, Lysine-specific demethylase 4D (Homo sapiens) (UniProt Q6B0I6).
T2 sequence (whole entry): T1 sequence (Q6B0I6 whole entry)
Nature of the assay: Inhibition of KDM4D in human HCT-116 cells assessed as reduction in Gli1 protein expression incubated for 48 hrs measured by Western blot analysis. The assay is classed as cell-based. Conditions: dose 2.5-20 µM. Background: A western blot detects proteins with antibodies after separation by electrophoresis.

In assay [4] the test system is SW-620. The experiment in a line: Inhibition of colony formation in human SW-620 cells incubated for 7 days by crystal violet staining based assay. The assay is classed as functional, cell-based. Conditions: dose 2.5-10 µM, time 7.0 day.
For another assay, the system named is NCI-H1792. Nature of the assay: Antiproliferative activity against human NCI-H1792 cells assessed as reduction in cell viability measured after 72 hrs by MTT assay. It is filed as functional, cell-based.
In the next assay the test system is DU-145. The experiment in a line: Antiproliferative activity against human DU-145 cells assessed as reduction in cell viability measured after 72 hrs by MTT assay. The assay is classed as functional, cell-based.
Assay [5] in a line: Inhibition of KDM7B (unknown origin) by AlphaLISA assay. Also noted: species or system Homo sapiens. A general note: Alpha assays give light when donor and acceptor beads are brought close together.
For assay [6], the system named is HCT-116. Nature of the assay: Inhibition of cell migration in human HCT-116 cells at 10 to 20 uM by wound healing assay. Conditions: dose 10-20 µM, time lower 12.0 hrs, time upper […], TDE = time-dependent effect. It is filed as functional, cell-based.
Assay [7] deals with HCT-116. Nature of the assay: Inhibition of cell migration in human HCT-116 cells at 20 uM incubated for 36 hrs by wound healing assay. The assay is classed as functional.
In assay [8] the test system is SW480. The experiment in a line: Inhibition of colony formation in human SW480 cells incubated for 7 days by crystal violet staining based assay. The assay is classed as functional, cell-based. The conditions noted are these: dose 2.5-10 µM, time 7.0 day.
Assay [9] concerns the target T2, Lysine-specific demethylase 4D (Homo sapiens). Nature of the assay: Inhibition of GST-tagged KDM4D (unknown origin) expressed in Escherichia coli DH5alpha assessed as histone demethylation activity using H3K9me3 as substrate incubated for 4 hrs in presence of FLAG-histone H3 measured by Western blot analysis. Conditions: dose 2.5-20 µM.
For assay [10] the target is unchanged. Nature of the assay: Inhibition of KDM4D in human HCT-116 cells assessed as reduction in beta-catenin protein expression incubated for 48 hrs measured by Western blot analysis. The assay is classed as cell-based. The conditions noted are these: dose 2.5-20 µM.
The subject of a further assay is A549. The experiment in a line: Antiproliferative activity against human A549 cells assessed as reduction in cell viability measured after 72 hrs by MTT assay. It is filed as functional, cell-based.
Assay [11] relates to HCT-116. The experiment in a line: Downregulation of KDM4D expression in human HCT-116 cells at 2.5 to 20 uM incubated for 48 hrs measured by Western blot analysis. Conditions: dose 2.5-20 µM. It is filed as functional, cell-based.
For a further assay, the system named is FaDu. Nature of the assay: Antiproliferative activity against human FaDu cells assessed as reduction in cell viability measured after 72 hrs by MTT assay. The assay is classed as functional, cell-based.
Assay [12] deals with HCT-116. Nature of the assay: Inhibition of colony formation in human HCT-116 cells incubated for 7 days by crystal violet staining based assay. The conditions noted are these: dose 2.5-10 µM, time 7.0 day. It is filed as functional, cell-based.
In another assay the test system is HeLa. The experiment in a line: Antiproliferative activity against human HeLa cells assessed as reduction in cell viability measured after 72 hrs by MTT assay. It is filed as functional, cell-based.
In assay [13] the target is T2, Lysine-specific demethylase 4D (Homo sapiens). The experiment in a line: Inhibition of human KDM4D expressed in Escherichia coli BL21 (DE3) at 1 uM using biotinylated H3-derived peptide and 2-OG as substrate preincubated for 15 mins followed by substrate addition and measured after 1 hr by AlphaLISA assay. Conditions: time 75.0 min.
In assay [14] the test system is HCT-116. The experiment in a line: Inhibition of cell migration in human HCT-116 cells incubated for 12 to 36 hrs by wound healing assay. It is filed as functional, cell-based. The conditions noted are these: dose 10-20 µM, time lower 12.0 hrs, time upper […].
The test system of the next assay is SMMC-7721. The experiment in a line: Antiproliferative activity against human SMMC-7721 cells assessed as reduction in cell viability measured after 72 hrs by MTT assay. The assay is classed as functional, cell-based.
Assay [15] has as its system SW-620. Nature of the assay: Antiproliferative activity against human SW-620 cells assessed as reduction in cell viability measured after 72 hrs by MTT assay. It is filed as functional, cell-based. Conditions: SW-620, 72 h.
Assay [16] deals with HCT-116. The experiment in a line: Antiproliferative activity against human HCT-116 cells assessed as reduction in cell viability measured after 72 hrs by MTT assay. It is filed as functional, cell-based. Conditions: HCT-116, 72 h.
Assay [17] relates to HCT-116. Nature of the assay: Inhibition of cell migration in human HCT-116 cells at 10 uM incubated for 36 hrs by wound healing assay. It is filed as functional.
In assay [18] the target is T2, Lysine-specific demethylase 4D (Homo sapiens). Nature of the assay: Inhibition of KDM4D in human HCT-116 cells assessed as reduction in c-myc protein expression incubated for 48 hrs measured by Western blot analysis. It is filed as cell-based. Conditions: dose 2.5-20 µM.
Assay [19] relates to HCT-116. The experiment in a line: Inhibition of cell migration in human HCT-116 cells by crystal violet staining based transwell assay. It is filed as functional. The conditions noted are these: dose 2.5-10 µM.
In assay [20] the target is T1, Lysine-specific demethylase 4D. The experiment in a line: Inhibition of human KDM4D expressed in Escherichia coli BL21 (DE3) using biotinylated H3-derived peptide and 2-OG as substrate preincubated for 15 mins followed by substrate addition and measured after 1 hr by AlphaLISA assay.

Activity calls are given as the source filed them. The calls are words filed in the database; no cut-off is given here.

The text below walks through data of ChEMBL document CHEMBL4831501, “Discovery of a potent and selective inhibitor of histone lysine demethylase KDM4D” (Eur J Med Chem, 2021).

Broadly, the IC50 is the point on the concentration scale where inhibition reaches its midpoint. Broadly, the inhibition is the relative decrease from the control value, in per cent.

For the compound `Clc1ccc(N/N=C(\c2ccccc2)c2ccccn2)nc1`, the IC50 in assay [1] is 290 nM.

As to `CC(C)(C)OC(=O)N[C@@H]1CCN(C(c2ccc(-c3ccncc3)cc2)c2cc3c(cc2O)OCO3)C1` (stereo partly specified), the IC50 in the assay with SW480 [2] is 10700 nM; in assay [5], 82700 nM; in the assay on SW-620 [15] it was 19200 nM; with HCT-116 [16], 10700 nM. In addition, the outcome with HepG2, in the assay with Huh-7, in the assay with NCI-H1792, in the assay on DU-145, in the assay with A549 and with FaDu was Active. Moreover, the outcome in the assay with HeLa and with SMMC-7721 was Active. In addition, the inhibition entry was “Dose-Dependent Effect” in [3]; “Dose-Dependent Effect” in the assay with SW-620 [4]; “Tde” with HCT-116 [6]; “Dose-Dependent Effect” in the assay with SW480 [8]; “Dose-Dependent Effect” in assay [9]; “Dose-Dependent Effect” in [10]. Besides, the inhibition result was “Dose-Dependent Effect” in the assay with HCT-116 [12]; 99.5% in assay [13]; “Dose-Dependent Effect” with HCT-116 [14]; “Dose-Dependent Effect” in [18]; “Dose-Dependent Effect” in the assay with HCT-116 [19]. The compound also returned an inhibition at 20 µM in the assay with HCT-116 [7] of 94.1%. Moreover, in the assay with HCT-116 [11], the inhibition entry was “Active”. In the assay with HCT-116 [17], this compound registered an inhibition at 10 µM of 42.4%.

As to `CC(C)(C)OC(=O)N[C@@H]1CCN(C(c2ccc(C#N)cn2)c2cc3c(cc2O)OCO3)C1` (stereo partly specified), the IC50 in assay [20] worked out at 45 nM. The inhibition in assay [13] was 100%.

The compound `O=C(NC1CC1)[C@@H]1CCN(C(c2ccncc2)c2cc3c(cc2O)OCO3)C1` (stereo partly specified) came in with an IC50 in assay [20] of 546 nM. Moreover, the inhibition in [13] amounted to 98.3%.

As for `CC(C)(C)OC(=O)N[C@@H]1CCN(C(c2ccc(-c3cccnc3)cc2)c2cc3c(cc2O)OCO3)C1` (stereo partly specified), the IC50 in assay [20] was determined as 220 nM. This compound gave an inhibition in [13] of 99.2%.

In turn, `CC(C)(C)OC(=O)N[C@@H]1CCN(C(c2ccc(C#N)cc2)c2cc3c(cc2O)OCO3)C1` (stereo partly specified) yielded an IC50 in [20] of 141 nM. Also, in assay [13], the inhibition was 99.4%.

On to `CN(C)[C@@H]1CCN(C(c2ccncc2)c2cc3c(cc2O)OCO3)C1` (stereo partly specified), for which half-maximal inhibition in assay [20] (IC50) was put at 200 nM. Moreover, the inhibition in assay [13] is 95%.

The compound `CC(C)(C)OC(=O)N[C@@H]1CCN(C(c2ccc(F)cc2)c2cc3c(cc2O)OCO3)C1` (stereo partly specified) had an IC50 in assay [20] of 192 nM. Also, in assay [13], the inhibition came out at 98.2%.

`CC(C)(C)OC(=O)N[C@@H]1CCN(C(c2cccc(-c3ccncc3)c2)c2cc3c(cc2O)OCO3)C1` (stereo partly specified) gave an IC50 in assay [20] of 223 nM. Also, the inhibition in assay [13] amounted to 95.6%.
